Experimental data published in US20170281611A1, “QUINOLINES AND THEIR USE FOR TREATING ENDOPLASMIC RETICULUM STRESS-CAUSED DISEASES” (EIGER BIOPHARMACEUTICALS, INC., priority 2014, published 2017).

Assays:
Assay type in all cases: in vivo
[1] = system: 6-OHDA lesioned Wistar rats; assay: Rat unilateral 6-OHDA model of Parkinson's disease, initiation time (IT) test; conditions: D11, L-DOPA 8 mg/kg with benserazide 12.5 mg/kg IP once; 6-OHDA/Vehicle 37.88±6.10 sec
Description: (§1) Fifty adult male Wistar rats were used. The rats from different groups (G1 to G5) were randomized. At the beginning of the study, the rats were about 5 weeks old and naive to previous administration of any drug.
(§2) A stereotaxic injection of 6-OHDA (G2 to G5) or saline (G1: sham group) was performed to induce a unilateral dopaminergic lesion on day 0 (D0). Surgery was performed on D0 under ketamine (50 mg/kg) and xylazine (10 mg/kg). The rats of G2 to G5 received a unilateral injection of 6-OHDA (6 μL) in the left substantia nigra pars compacta. Jouve et al., J. Neurosci. 2010, 30, 9919-9928. The rats of the G1 sham group were injected with saline. During surgery, local analgesia was achieved using subcutaneous injections of lidocaine. At the end of surgery, the rats were treated with buprenorphine (0.05 mg/kg, S.C.).
The IT test was performed both before the 6-OHDA lesion induction on D0 and on day 11 (D11) after the 6-OHDA lesion induction. Around six days (D−6) before the 6-OHDA lesion induction, the IT test was performed eight consecutive times for each limb of each rat to obtain baseline values. On D11, the IT test was performed one hour after the rats were dosed. For every test, only one of the two forelimbs of each rat was left free to move and the time that is necessary to initiate the movement toward a plane surface was recorded using 180 sec as break-off point. […]

[2] = system: 6-OHDA lesioned Wistar rats; assay: Rat unilateral 6-OHDA model of Parkinson's disease, cylinder test; conditions: D11, L-DOPA 8 mg/kg with benserazide 12.5 mg/kg IP once; 6-OHDA/Vehicle 23.17±6.45
Description: as §1, §2
The cylinder test was performed only on D11, after completion of the IT and stepping tests, and 1.5 hours after the rats were dosed. The rats were placed in a Plexiglas cylinder and immediately videotaped for 15 min. During this time, the number of contacts made on the cylinder wall with the ipsilateral, contralateral, and two paws simultaneously (double contacts) were recorded and then expressed as a percentage of the total number of contacts. Lundblad et al., Eur. J. Neurosci. 2002, 15, 120-132; Jouve et al., J. Neurosci. 2010, 30, 9919-9928. […]

[3] = system: 6-OHDA lesioned Wistar rats; assay: Rat unilateral 6-OHDA model of Parkinson's disease, stepping test; conditions: D11, L-DOPA 8 mg/kg with benserazide 12.5 mg/kg IP once; 6-OHDA/Vehicle 1.19±0.24 steps
Description: as §1, §2
The stepping test was performed after IT test, both before the 6-OHDA lesion induction on D0 and on D11. Around D−6, the stepping test was performed eight consecutive times for the right paw of each animal to obtain baseline values. On D11, the stepping test was performed one hour after the rats were dosed. Each rat was hold by an experimenter and only one of the two forelimbs was left free to move above a plane surface and the other was held with the paw touching the table. The rats were then to be moved slowly forward by the experimenter. The number of adjusting steps was countered for the right paw. Olsson et al., J. Neurosci. 1995, 15, 3863-3875.
L-DOPA and benserazide (a peripheric DOPA decarboxylase inhibitor) were prepared together as a single solution containing 0.9% NaCl and 0.1% ascorbic acid.
All the dosings were given via the IP route, once daily, Sunday excluded.

SMILES: N[C@@H](Cc1ccc(O)c(O)c1)C(=O)O [L-DOPA, reference compound]
- initiation time [1]: 1.28 ± 0.21 s
- percentage of double contacts [2]: 46.67±4.60 double contacts
- number of adjusting steps [3]: 10.05±0.56 steps
